Our source for the NET/SERT values is paper PMC2788963 (Bioorganic & medicinal chemistry letters, 2009).

The target of the test is SERT (Rattus norvegicus, UniProt P31652). In kind it is binding. The following applies: selectivity, ratio of Ki values.

The structures appear in SMILES notation.

Chain of SERT (P31652 whole entry): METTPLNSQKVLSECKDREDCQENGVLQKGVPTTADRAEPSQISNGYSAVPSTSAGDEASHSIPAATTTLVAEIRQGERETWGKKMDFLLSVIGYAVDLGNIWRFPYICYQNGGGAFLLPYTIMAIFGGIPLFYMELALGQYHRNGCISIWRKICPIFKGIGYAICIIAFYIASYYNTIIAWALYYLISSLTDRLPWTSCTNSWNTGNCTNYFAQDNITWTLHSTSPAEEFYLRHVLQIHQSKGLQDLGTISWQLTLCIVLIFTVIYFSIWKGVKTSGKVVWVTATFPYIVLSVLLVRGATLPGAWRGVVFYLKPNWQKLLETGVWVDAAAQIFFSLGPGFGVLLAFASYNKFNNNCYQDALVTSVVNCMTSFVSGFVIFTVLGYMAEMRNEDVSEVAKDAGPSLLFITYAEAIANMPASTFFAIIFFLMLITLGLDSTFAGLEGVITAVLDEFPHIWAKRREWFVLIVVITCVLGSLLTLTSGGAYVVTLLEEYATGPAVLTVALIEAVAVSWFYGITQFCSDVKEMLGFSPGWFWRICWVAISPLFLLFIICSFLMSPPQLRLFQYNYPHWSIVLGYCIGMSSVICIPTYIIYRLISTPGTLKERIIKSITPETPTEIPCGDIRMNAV

As to `Clc1ccc(CO[C@@]2(c3ccc(Cl)cc3)C[C@H]3CC[C@@H](C2)N3)cc1` [7f], the NET/SERT is given as 23,700.
